Measurements taken from US20160158200A1, “Combinations of Hepatitis C Virus Inhibitors” (priority 2013, published 2016).

Test system: HCV genotype-1a variant with glutamine 30 changed to glutamate in the NS5A protein
Type: cell-based
Details: test compound titrated with BMS-790052 fixed at 200 nM; genotype 1a Q30E replicon
Method in brief: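 Synergy was assessed by combining several fixed amounts of an NS5A-targeting compound with a titration of the second compound of interest.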

CN(C(=O)OC(C)(C)C)C1(C(=O)N2CCC(C)(C)C2c2nc(-c3ccc(-c4ccc(-c5c[nH]c(C6N(C(=O)C7(N(C)C(=O)OC(C)(C)C)CC7)CCC6(C)C)n5)cc4)cc3)c[nH]2)CC1 (centres unmarked) [Compound W-226]
Fold-Synergistic 1a (Q30E): >10 fold

CC1(C)CCN(C(=O)c2ccc(-c3ccccc3)cc2)C1c1nc(-c2ccc(-c3ccc(-c4c[nH]c(C5N(C(=O)c6ccc(-c7ccccc7)cc6)CCC5(C)C)n4)cc3)cc2)c[nH]1 (centres unmarked) [Compound W-227]
Fold-Synergistic 1a (Q30E): >100 fold

CC1CN(C(C)(C)C(=O)N2CCC(C)(C)C2c2nc(-c3ccc(-c4ccc(-c5c[nH]c(C6N(C(=O)C(C)(C)N7CC(C)OC(C)C7)CCC6(C)C)n5)cc4)cc3)c[nH]2)CC(C)O1 (centres unmarked) [Compound W-228]
Fold-Synergistic 1a (Q30E): <10 fold

CC(C)(C)OC(=O)NC1(C(=O)N[C@H](c2nc(-c3ccc(-c4ccc(-c5c[nH]c([C@@H](NC(=O)C6(NC(=O)OC(C)(C)C)CCC(=O)CC6)C(C)(C)C)n5)cc4)cc3)c[nH]2)C(C)(C)C)CCC(=O)CC1 [Compound W-233]
Fold-Synergistic 1a (Q30E): >100 fold

COC(C)(CO)C(=O)N[C@H](c1nc(-c2ccc(-c3ccc(-c4c[nH]c([C@@H](NC(=O)C(C)(CO)OC)C(C)(C)C)n4)cc3)cc2)c[nH]1)C(C)(C)C (some centres unmarked) [Compound W-235]
Fold-Synergistic 1a (Q30E): >100 fold

CC(C)N(CC(F)(F)F)C(=O)C(=O)N1CCC(C)(C)C1c1nc(-c2ccc(-c3ccc(-c4c[nH]c(C5N(C(=O)C(=O)N(CC(F)(F)F)C(C)C)CCC5(C)C)n4)cc3)cc2)c[nH]1 (centres unmarked) [Compound W-236]
Fold-Synergistic 1a (Q30E): >100 fold

CC(C)(C)C(=O)C(=O)N[C@H](c1nc(-c2ccc(-c3ccc(-c4c[nH]c([C@@H](NC(=O)C(=O)C(C)(C)C)C(C)(C)C)n4)cc3)cc2)c[nH]1)C(C)(C)C [Compound W-238]
Fold-Synergistic 1a (Q30E): >100 fold

C[C@@H]1CCN(C(=O)C(=O)N(C2CC2)C2CC2)C1c1nc(-c2ccc(-c3ccc(-c4c[nH]c(C5[C@H](C)CCN5C(=O)C(=O)N(C5CC5)C5CC5)n4)cc3)cc2)c[nH]1 (some centres unmarked) [Compound W-241]
Fold-Synergistic 1a (Q30E): >10 fold

Cc1cc(-c2c[nH]c(C3CC[C@H](C)N3C(=O)C(=O)N3CCC(F)(F)CC3)n2)ccc1-c1ccc(-c2c[nH]c(C3CC[C@H](C)N3C(=O)C(=O)N3CCC(F)(F)CC3)n2)cc1 (some centres unmarked) [Compound W-242]
Fold-Synergistic 1a (Q30E): >100 fold

O=C(C(=O)N1C(c2nc(-c3ccc(-c4ccc(-c5c[nH]c(C6CC7C[C@@H]7N6C(=O)C(=O)N6CCC(F)(F)CC6)n5)cc4)cc3)c[nH]2)C[C@@H]2CC21)N1CCC(F)(F)CC1 (some centres unmarked) [Compound W-243]
Fold-Synergistic 1a (Q30E): >100 fold

C[C@H]1CCN(C(=O)C(=O)N(C2CC2)C2CC2)C1c1nc(-c2ccc(-c3ccc(-c4c[nH]c(C5[C@@H](C)CCN5C(=O)C(=O)N(C5CC5)C5CC5)n4)cc3)cc2)c[nH]1 (some centres unmarked) [Compound W-244]
Fold-Synergistic 1a (Q30E): >100 fold

CC1(C)CCN(C(=O)C(=O)N2C(C)(C)CCCC2(C)C)C1c1nc(-c2ccc(-c3ccc(-c4c[nH]c(C5N(C(=O)C(=O)N6C(C)(C)CCCC6(C)C)CCC5(C)C)n4)cc3)cc2)c[nH]1.O=C(O)C(F)(F)F.O=C(O)C(F)(F)F (centres unmarked) [Compound W-246]
Fold-Synergistic 1a (Q30E): >100 fold

CC(C)(C)[C@H](NC(=O)C(=O)N1C(C)(C)CCCC1(C)C)c1nc(-c2ccc(-c3ccc(-c4c[nH]c([C@@H](NC(=O)C(=O)N5C(C)(C)CCCC5(C)C)C(C)(C)C)n4)cc3)cc2)c[nH]1 [Compound W-248]
Fold-Synergistic 1a (Q30E): >100 fold

C[C@H]1CCN(C(=O)C(=O)N2C(C)(C)CCCC2(C)C)C1c1nc(-c2ccc(-c3ccc(-c4c[nH]c(C5[C@@H](C)CCN5C(=O)C(=O)N5C(C)(C)CCCC5(C)C)n4)cc3)cc2)c[nH]1 (some centres unmarked) [Compound W-249]
Fold-Synergistic 1a (Q30E): >100 fold

CCOC(=O)CC1(C(=O)N[C@H](c2nc(-c3ccc(-c4ccc(-c5c[nH]c([C@@H](NC(=O)C6(NC(=O)OCC)CCCCC6)C(C)(C)C)n5)cc4)cc3)c[nH]2)C(C)(C)C)CCCCC1 [Compound W-250]
Fold-Synergistic 1a (Q30E): >100 fold

CCNC(=O)NC1(C(=O)N[C@H](c2nc(-c3ccc(-c4ccc(-c5c[nH]c([C@@H](NC(=O)C6(NC(=O)NCC)CCCCC6)C(C)(C)C)n5)cc4)cc3)c[nH]2)C(C)(C)C)CCCCC1 [Compound W-251]
Fold-Synergistic 1a (Q30E): >100 fold

CC(=O)NC1(C(=O)N[C@H](c2nc(-c3ccc(-c4ccc(-c5c[nH]c([C@@H](NC(=O)C6(NC(C)=O)CCCCC6)C(C)(C)C)n5)cc4)cc3)c[nH]2)C(C)(C)C)CCCCC1 [Compound W-252]
Fold-Synergistic 1a (Q30E): >100 fold

CCCCC(=O)NC1(C(=O)N[C@H](c2nc(-c3ccc(-c4ccc(-c5c[nH]c([C@@H](NC(=O)C6(NC(=O)CCCC)CCCCC6)C(C)(C)C)n5)cc4)cc3)c[nH]2)C(C)(C)C)CCCCC1 [Compound W-253]
Fold-Synergistic 1a (Q30E): >100 fold

CC(C)(C)CC(=O)NC1(C(=O)N[C@H](c2nc(-c3ccc(-c4ccc(-c5c[nH]c([C@@H](NC(=O)C6(NC(=O)CC(C)(C)C)CCCCC6)C(C)(C)C)n5)cc4)cc3)c[nH]2)C(C)(C)C)CCCCC1 [Compound W-254]
Fold-Synergistic 1a (Q30E): >100 fold

CC(C)(C)[C@H](NC(=O)C1(NC(=O)CC(F)(F)F)CCCCC1)c1nc(-c2ccc(-c3ccc(-c4c[nH]c([C@@H](NC(=O)C5(NC(=O)CC(F)(F)F)CCCCC5)C(C)(C)C)n4)cc3)cc2)c[nH]1 [Compound W-255]
Fold-Synergistic 1a (Q30E): >100 fold

CC(C)(C)C(=O)NC1(C(=O)N[C@H](c2nc(-c3ccc(-c4ccc(-c5c[nH]c([C@@H](NC(=O)C6(NC(=O)C(C)(C)C)CCCCC6)C(C)(C)C)n5)cc4)cc3)c[nH]2)C(C)(C)C)CCCCC1 [Compound W-262]
Fold-Synergistic 1a (Q30E): >100 fold

COCC(=O)NC1(C(=O)N[C@H](c2nc(-c3ccc(-c4ccc(-c5c[nH]c([C@@H](NC(=O)C6(NC(=O)COC)CCCCC6)C(C)(C)C)n5)cc4)cc3)c[nH]2)C(C)(C)C)CCCCC1 [Compound W-263]
Fold-Synergistic 1a (Q30E): >100 fold

CC(C)(C)[C@H](NC(=O)C1(NC(=O)C2CC2)CCCCC1)c1nc(-c2ccc(-c3ccc(-c4c[nH]c([C@@H](NC(=O)C5(NC(=O)C6CC6)CCCCC5)C(C)(C)C)n4)cc3)cc2)c[nH]1 [Compound W-264]
Fold-Synergistic 1a (Q30E): >100 fold

CCC(=O)NC1(C(=O)N[C@H](c2nc(-c3ccc(-c4ccc(-c5c[nH]c([C@@H](NC(=O)C6(NC(=O)CC)CCCCC6)C(C)(C)C)n5)cc4)cc3)c[nH]2)C(C)(C)C)CCCCC1 [Compound W-265]
Fold-Synergistic 1a (Q30E): >100 fold

CC(C)C(=O)NC1(C(=O)N[C@H](c2nc(-c3ccc(-c4ccc(-c5c[nH]c([C@@H](NC(=O)C6(NC(=O)C(C)C)CCCCC6)C(C)(C)C)n5)cc4)cc3)c[nH]2)C(C)(C)C)CCCCC1 [Compound W-266]
Fold-Synergistic 1a (Q30E): >100 fold

CN(C)C(=O)C(=O)NC1(C(=O)N[C@H](c2nc(-c3ccc(-c4ccc(-c5c[nH]c([C@@H](NC(=O)C6(NC(=O)C(=O)N(C)C)CCCCC6)C(C)(C)C)n5)cc4)cc3)c[nH]2)C(C)(C)C)CCCCC1 [Compound W-268]
Fold-Synergistic 1a (Q30E): >100 fold

CC(C)(C)[C@H](NC(=O)C1(NC(=O)C(F)(F)F)CCCCC1)c1nc(-c2ccc(-c3ccc(-c4c[nH]c([C@@H](NC(=O)C5(NC(=O)C(F)(F)F)CCCCC5)C(C)(C)C)n4)cc3)cc2)c[nH]1.O=C(O)C(F)(F)F.O=C(O)C(F)(F)F [Compound W-269]
Fold-Synergistic 1a (Q30E): >100 fold

[2H]C([2H])([2H])C(=O)NC1(C(=O)N[C@H](c2nc(-c3ccc(-c4ccc(-c5c[nH]c([C@@H](NC(=O)C6(NC(=O)C([2H])([2H])[2H])CCCCC6)C(C)(C)C)n5)cc4)cc3)c[nH]2)C(C)(C)C)CCCCC1 [Compound W-272]
Fold-Synergistic 1a (Q30E): >100 fold

CC(C)(C)[C@H](NC(=O)C1(NC(=O)CC2CC2)CCCCC1)c1nc(-c2ccc(-c3ccc(-c4c[nH]c([C@@H](NC(=O)C5(NC(=O)CC6CC6)CCCCC5)C(C)(C)C)n4)cc3)cc2)c[nH]1 [Compound W-276]
Fold-Synergistic 1a (Q30E): >100 fold

CC(C)OC(C)(C)C(=O)N[C@H](c1nc(-c2ccc(-c3ccc(-c4c[nH]c([C@@H](NC(=O)C(C)(C)OC(C)C)C(C)(C)C)n4)cc3)cc2)c[nH]1)C(C)(C)C [Compound Y-1]
Fold-Synergistic 1a (Q30E): >100 fold

CC(C)(OCC(F)(F)F)C(=O)N[C@H](c1nc(-c2ccc(-c3ccc(-c4c[nH]c([C@@H](NC(=O)C(C)(C)OCC(F)(F)F)C(C)(C)C)n4)cc3)cc2)c[nH]1)C(C)(C)C [Compound Y-2]
Fold-Synergistic 1a (Q30E): >100 fold

CC(C)(OCCF)C(=O)N[C@H](c1nc(-c2ccc(-c3ccc(-c4c[nH]c([C@@H](NC(=O)C(C)(C)OCCF)C(C)(C)C)n4)cc3)cc2)c[nH]1)C(C)(C)C [Compound Y-3]
Fold-Synergistic 1a (Q30E): >100 fold

CC(C)(Oc1ccccc1F)C(=O)N[C@H](c1nc(-c2ccc(-c3ccc(-c4c[nH]c([C@@H](NC(=O)C(C)(C)Oc5ccccc5F)C(C)(C)C)n4)cc3)cc2)c[nH]1)C(C)(C)C [Compound Y-4]
Fold-Synergistic 1a (Q30E): >100 fold

CC(C)(C)[C@H](NC(=O)C1CCCCO1)c1nc(-c2ccc(-c3ccc(-c4c[nH]c([C@@H](NC(=O)C5CCCCO5)C(C)(C)C)n4)cc3)cc2)c[nH]1 (some centres unmarked) [Compound Y-5]
Fold-Synergistic 1a (Q30E): >100 fold

CC(C)(C)[C@H](NC(=O)C1CCCCO1)c1nc(-c2ccc(-c3ccc(-c4c[nH]c([C@@H](NC(=O)C5CCCCO5)C(C)(C)C)n4)cc3)cc2)c[nH]1 (some centres unmarked) [Compound Y-6]
Fold-Synergistic 1a (Q30E): >100 fold

CC(C)(C)[C@H](NC(=O)C1C2CC(F)(F)CC21)c1nc(-c2ccc(-c3ccc(-c4c[nH]c([C@@H](NC(=O)C5C6CC(F)(F)CC65)C(C)(C)C)n4)cc3)cc2)c[nH]1 (some centres unmarked) [Compound Y-7]
Fold-Synergistic 1a (Q30E): >100 fold

CC(C)(CC(F)(F)F)C(=O)N[C@H](c1nc(-c2ccc(-c3ccc(-c4c[nH]c([C@@H](NC(=O)C(C)(C)CC(F)(F)F)C(C)(C)C)n4)cc3)cc2)c[nH]1)C(C)(C)C [Compound Y-8]
Fold-Synergistic 1a (Q30E): >100 fold

CC(C)(C)[C@H](NC(=O)[C@@H]1C[C@@H]2[C@H](C1)C2(F)F)c1nc(-c2ccc(-c3ccc(-c4c[nH]c([C@@H](NC(=O)[C@@H]5C[C@@H]6[C@H](C5)C6(F)F)C(C)(C)C)n4)cc3)cc2)c[nH]1 [Compound Y-9]
Fold-Synergistic 1a (Q30E): >100 fold
